Test [1] concerns the target T1, Protein argonaute-2 (Homo sapiens, UniProt Q9UKV8). Nature of the test: Binding affinity to human Argonaut protein 2 PAZ domain assessed as dissociation constant by using isothermal titration microcalorimetry. For orientation: Isothermal titration calorimetry measures the heat released or taken up as one component is titrated into another.
The target of test [2] is T1, Protein argonaute-2. Nature of the test: Binding affinity to human Argonaut protein 2 PAZ domain assessed as change in entropy by isothermal titration microcalorimetry.
Test [3] concerns HeLa. Nature of the test: Inhibition of RNAi in human Hela cells expressing Renilla/firefly luciferase genes and siRNA assessed as siRNA-mediated gene silencing activity at 100 to 500 nM by dual luciferase assay relative to control. In kind it is cell-based. The note with it: dose 100-500 nM.
Test [4] deals with T1, Protein argonaute-2. In words: Binding affinity to human Argonaut protein 2 PAZ domain assessed as association constant by using isothermal titration microcalorimetry.
Test [5] concerns the target T1, Protein argonaute-2. Nature of the test: Binding affinity to human Argonaut protein 2 PAZ domain assessed as change in enthalpy by isothermal titration microcalorimetry.
In test [6] the test system is HeLa. In words: Inhibition of RNAi in human Hela cells expressing Renilla/firefly luciferase genes and siRNA assessed as siRNA-mediated gene silencing activity at 500 nM by dual luciferase assay relative to control. It counts as cell-based.

SMILES strings stand for the structures. pKd: −log10 of the molar value. Active and inactive are the calls of the source. No cut-off for these calls is given here.

T1 sequence (Q9UKV8 whole entry, the tested form may be a part): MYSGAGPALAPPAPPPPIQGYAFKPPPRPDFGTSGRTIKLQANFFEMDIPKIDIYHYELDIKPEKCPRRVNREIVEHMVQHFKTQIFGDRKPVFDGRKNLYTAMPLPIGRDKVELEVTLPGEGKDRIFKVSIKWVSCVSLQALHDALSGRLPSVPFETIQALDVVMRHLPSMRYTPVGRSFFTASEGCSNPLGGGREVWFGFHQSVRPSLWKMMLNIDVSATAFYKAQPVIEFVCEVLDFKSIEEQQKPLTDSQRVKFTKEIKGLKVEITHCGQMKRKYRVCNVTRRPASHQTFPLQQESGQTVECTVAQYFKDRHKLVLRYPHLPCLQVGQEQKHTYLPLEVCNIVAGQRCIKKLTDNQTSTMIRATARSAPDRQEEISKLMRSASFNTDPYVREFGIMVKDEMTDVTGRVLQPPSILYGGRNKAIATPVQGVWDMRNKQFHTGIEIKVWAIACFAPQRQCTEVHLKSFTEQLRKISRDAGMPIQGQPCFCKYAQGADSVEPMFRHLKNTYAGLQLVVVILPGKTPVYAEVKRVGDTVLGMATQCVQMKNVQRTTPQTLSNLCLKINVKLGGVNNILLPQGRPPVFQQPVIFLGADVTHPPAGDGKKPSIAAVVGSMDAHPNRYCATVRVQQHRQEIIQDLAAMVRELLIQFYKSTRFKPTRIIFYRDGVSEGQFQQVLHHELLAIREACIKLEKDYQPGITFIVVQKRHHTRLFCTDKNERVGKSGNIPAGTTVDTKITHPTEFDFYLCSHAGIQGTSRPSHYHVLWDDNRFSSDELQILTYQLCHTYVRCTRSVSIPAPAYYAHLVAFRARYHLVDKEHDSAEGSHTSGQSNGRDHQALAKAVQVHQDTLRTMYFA

As to `[H]/N=C(/N)NS(=O)(=O)c1ccc(N)cc1` [SULFAGUANIDINE], the pKd on Protein argonaute-2 [1] was 4.31.
In the case of `Nc1ccc(S(N)(=O)=O)cc1`, the deltaS at Protein argonaute-2 [2] was determined as 15.7 cal/mol.K. Besides, the inhibition entry in the test on HeLa [3] was “inactive”.
Regarding `N=C(N)NS(=O)(=O)c1ccc(N)cc1`, the Ka at Protein argonaute-2 [4] was 2 10^4/M. Further, on Protein argonaute-2 [5], the deltaH is -1.5 kcal/mol. Further, the deltaS on Protein argonaute-2 [2] worked out at 15.6 cal/mol.K. Besides, the inhibition entry in the test on HeLa [3] was “inactive”.
Regarding `O=c1ccn([C@@H]2O[C@H](COP(=O)(O)O)[C@@H](O)[C@H]2O)c(=O)[nH]1`, the Ka on Protein argonaute-2 [4] was 6.6 10^4/M. In addition, at Protein argonaute-2 [5], the deltaH was -0.9 kcal/mol. In addition, the deltaS at Protein argonaute-2 [2] came out at 18.2 cal/mol.K.
As to `Cc1cc(NS(=O)(=O)c2ccc(N)cc2)nc(C)n1` [SULFISOMIDINE], the Ka at Protein argonaute-2 [4] is 23 10^4/M. Besides, on Protein argonaute-2 [1], the pKd is 5.37. Moreover, the deltaH at Protein argonaute-2 [5] is -1.5 kcal/mol. For the same molecule, on Protein argonaute-2 [2], the deltaS was found to be 19.2 cal/mol.K. In addition, in the test with HeLa [3], the inhibition result was “Dose-dependent effect”. For the same molecule, the inhibition result with HeLa [6] was “Active”.

Usually pKd stands for the Kd on a negative log10 scale, so that one unit is a factor of ten.

Source of the values: ChEMBL document CHEMBL4673266, “Sulfonamide antibiotics inhibit RNAi by binding to human Argonaute protein 2 PAZ” (Bioorg Med Chem Lett, 2020).
